Reference: EP2951180B1, “2,6,7,8 SUBSTITUTED PURINES AS HDM2 INHIBITORS” (Merck Sharp & Dohme Corp., priority 2013, dated 2014)
Where two headings read alike, the source gives them in different places.

Target: T1, HDM2 (Homo sapiens, UniProt Q00987)
T1 construct: Thioredoxin (N); made in house; host or cells: E. coli strain BL21(DE3)Rosetta
Assay: HDM2 FRET assay (inhibition of binding of FITC labeled p53-pocket peptide to HDM2)
How it was run: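 Compounds were tested in 10-point serial dilution against 0.5 nM recombinant HDM2 binding 3 nM fluorescein-labeled p53-pocket peptide. Detection used 0.25 nM terbium cryptate anti-6xHis antibody in PBS buffer containing 0.01% BSA and 0.01% Tween-20.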

T1 sequence (Q00987 17-125): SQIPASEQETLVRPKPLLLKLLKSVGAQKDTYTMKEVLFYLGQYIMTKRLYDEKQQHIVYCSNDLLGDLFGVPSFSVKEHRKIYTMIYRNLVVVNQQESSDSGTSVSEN

| Structure (SMILES) | IC50 (Table 11, read-out: FRET IC50) [nM] | IC50 (FRET IC50) [nM] |
| --- | --- | --- |
| C[C@H]1CC[C@H](Cn2c(N3CCOC[C@H]3c3ccccc3)nc3nc(-c4noc(=O)[nH]4)nc(N4CC[C@@H]4C4CCC4)c32)CC1 [Example 11.9, 3-(6-((R)-2-Cyclobutylazetidin-1-yl)-7-((trans-4-methylcyclohexyl)methyl)-8-((R)-3-phenylmorpholino)-7H-purin-2-yl)-1,2,4-oxadiazol-5(4H)-one] | 27.3 |  |
| C[C@@H](Nc1nc(C(=O)O)nc2nc(N3CCOC[C@H]3c3ccccc3)n(C[C@H]3CC[C@H](C)CC3)c12)C1CCC1 [Example 11.10, 6-{[(1R)-1-cyclobutylethyl]amino}-7-[(trans-4-methylcyclohexyl)methyl]-8-[(3R)-3-phenylmorpholin-4-yl]-7H-purine-2-carboxylic acid] | 0.202 |  |
| C[C@@H](Nc1nc(-c2noc(=O)[nH]2)nc2nc(N3CCOC[C@H]3c3ccccc3)n(C[C@H]3CC[C@H](C)CC3)c12)C1CCC1 [Example 11.11, 3-(6-{[(1R)-1-cyclobutylethyl]amino}-7-[(trans-4-methylcyclohexyl)methyl]-8-[(3R)-3-phenylmorpholin-4-yl]-7H-purin-2-yl)-1,2,4-oxadiazol-5(4H)-one] | 0.626 |  |
| C[C@@H](Nc1nc(C(=O)O)nc2nc(N3CCCC[C@@H]3c3ccccc3)n(C[C@H]3CC[C@H](C)CC3)c12)C1CCC1 [Example 11.12, 6-{[(1R)-1-cyclobutylethyl]amino}-7-[(trans-4-methylcyclohexyl)methyl]-8-[(2R)-2-phenylpiperidin-1-yl]-7H-purine-2-carboxylic acid] | 2.82 |  |
| C[C@@H](Nc1nc(-c2noc(=O)[nH]2)nc2nc(N3CCCC[C@@H]3c3ccccc3)n(C[C@H]3CC[C@H](C)CC3)c12)C1CCC1 [Example 11.13, 3-(6-{[(1R)-1-cyclobutylethyl]amino}-7-[(trans-4-methylcyclohexyl)methyl]-8-[(2R)-2-phenylpiperidin-1-yl]-7H-purin-2-yl)-1,2,4-oxadiazol-5(4H)-one] | 26.7 |  |
| C[C@@H](Nc1nc(C(=O)O)nc2nc(N3CCCC[C@H]3c3ccccc3)n(C[C@H]3CC[C@H](C)CC3)c12)C1CCC1 [Example 11.14, 6-{[(1R)-1-cyclobutylethyl]amino}-7-[(trans-4-methylcyclohexyl)methyl]-8-[(2S)-2-phenylpiperidin-1-yl]-7H-purine-2-carboxylic acid] | 0.381 |  |
| C[C@@H](Nc1nc(-c2noc(=O)[nH]2)nc2nc(N3CCCC[C@H]3c3ccccc3)n(C[C@H]3CC[C@H](C)CC3)c12)C1CCC1 [Example 11.15, 3-(6-{[(1R)-1-cyclobutylethyl]amino}-7-[(trans-4-methylcyclohexyl)methyl]-8-[(2S)-2-phenylpiperidin-1-yl]-7H-purin-2-yl)-1,2,4-oxadiazol-5(4H)-one] | 2.81 |  |
| C[C@@H](Nc1nc(C(=O)O)nc2nc(N3CCCCC3c3cccc(F)c3)n(C[C@H]3CC[C@H](C)CC3)c12)C1CCC1 (stereo partly drawn) [Example 11.16, 6-{[(1R)-1-cyclobutylethyl]amino}-8-[2-(3-fluorophenyl)piperidin-1-yl]-7-[(trans-4-methylcyclohexyl)methyl]-7H-purine-2-carboxylic acid] | 2.84 |  |
| C[C@@H](Nc1nc(C(=O)O)nc2nc(N3CCc4ccccc4C3)n(C[C@H]3CC[C@H](C)CC3)c12)C1CCC1 [Example 11.17, 6-{[(1R)-1-cyclobutylethyl]amino}-8-(3,4-dihydroisoquinolin-2(1H)-yl)-7-[(trans-4-methylcyclohexyl)methyl]-7H-purine-2-carboxylic acid] | 17.9 |  |
| C[C@@H](Nc1nc(C(=O)O)nc2nc(N3CCCCC3c3ccc(F)cc3)n(C[C@H]3CC[C@H](C)CC3)c12)C1CCC1 (stereo partly drawn) [Example 11.18, 6-{[(1R)-1-cyclobutylethyl]amino}-8-[2-(4-fluorophenyl)piperidin-1-yl]-7-[(trans-4-methylcyclohexyl)methyl]-7H-purine-2-carboxylic acid] | 4.42 |  |
| C[C@@H](Nc1nc(C(=O)O)nc2nc(N3CCCCC3c3cccnc3)n(C[C@H]3CC[C@H](C)CC3)c12)C1CCC1 (stereo partly drawn) [Example 11.19, 6-{[(1R)-1-cyclobutylethyl]amino}-7-[(trans-4-methylcyclohexyl)methyl]-8-(2-pyridin-3-ylpiperidin-1-yl)-7H-purine-2-carboxylic acid] | 0.895 |  |
| C[C@@H](Nc1nc(C(=O)O)nc2nc(N3CCCC4CCCCC43)n(C[C@H]3CC[C@H](C)CC3)c12)C1CCC1 (stereo partly drawn) [Example 11.20, 6-{[(1R)-1-cyclobutylethyl]amino}-7-[(trans-4-methylcyclohexyl)methyl]-8-(octahydroquinolin-1(2H)-yl)-7H-purine-2-carboxylic acid] | 1.34 |  |
| C[C@@H](Nc1nc(C(=O)O)nc2nc(N3CCCCC3c3ccccn3)n(C[C@H]3CC[C@H](C)CC3)c12)C1CCC1 (stereo partly drawn) [Example 11.21, 6-{[(1R)-1-cyclobutylethyl]amino}-7-[(trans-4-methylcyclohexyl)methyl]-8-(2-pyridin-2-ylpiperidin-1-yl)-7H-purine-2-carboxylic acid] | 2.72 |  |
| C[C@@H](Nc1nc(C(=O)O)nc2nc(N3CCC4CCCCC4C3)n(C[C@H]3CC[C@H](C)CC3)c12)C1CCC1 (stereo partly drawn) [Example 11.22, 6-{[(1R)-1-cyclobutylethyl]amino}-7-[(trans-4-methylcyclohexyl)methyl]-8-(octahydroisoquinolin-2(1H)-yl)-7H-purine-2-carboxylic acid] | 18 |  |
| C[C@@H](Nc1nc(C(=O)O)nc2nc(N3CCCC4CCCCC43)n(C[C@H]3CC[C@H](C)CC3)c12)C1CCC1 (stereo partly drawn) [Example 11.23, 6-{[(1R)-1-cyclobutylethyl]amino}-7-[(trans-4-methylcyclohexyl)methyl]-8-(octahydroquinolin-1(2H)-yl)-7H-purine-2-carboxylic acid] | 3.11 |  |
| C[C@@H](Nc1nc(C(=O)O)nc2nc(N3C4CCCC3CC4)n(C[C@H]3CC[C@H](C)CC3)c12)C1CCC1 [Example 11.26, 8-(8-azabicyclo[3.2.1]oct-8-yl)-6-{[(1R)-1-cyclobutylethyl]amino}-7-[(trans-4-methylcyclohexyl)methyl]-7H-purine-2-carboxylic acid] |  | 3.57 |
| C[C@@H](Nc1nc(C(=O)O)nc2nc(N3CCCC3c3cccc(F)c3)n(C[C@H]3CC[C@H](C)CC3)c12)C1CCC1 (stereo partly drawn) [Example 11.28, 6-{[(1R)-1-cyclobutylethyl]amino}-8-[2-(3-fluorophenyl)pyrrolidin-1-yl]-7-[(trans-4-methylcyclohexyl)methyl]-7H-purine-2-carboxylic acid] | 1.52 |  |
| CC1CCCCN1c1nc2nc(C(=O)O)nc(N[C@H](C)C3CCC3)c2n1C[C@H]1CC[C@H](C)CC1 (stereo partly drawn) [Example 11.29, 6-{[(1R)-1-cyclobutylethyl]amino}-7-[(trans-4-methylcyclohexyl)methyl]-8-(2-methylpiperidin-1-yl)-7H-purine-2-carboxylic acid] | 2.23 |  |
| CC(C)CN(C)c1nc2nc(C(=O)O)nc(N[C@H](C)C3CCC3)c2n1C[C@H]1CC[C@H](C)CC1 [Example 11.30, 6-{[(1R)-1-cyclobutylethyl]amino}-7-[(trans-4-methylcyclohexyl)methyl]-8-[methyl(2-methylpropyl)amino] -7H-purine-2-carboxylic acid] | 1.65 |  |
| COc1cccc(C2CCCCN2c2nc3nc(C(=O)O)nc(N[C@H](C)C4CCC4)c3n2C[C@H]2CC[C@H](C)CC2)c1 (stereo partly drawn) [Example 11.31, 6-{[(1R)-1-cyclobutylethyl]amino}-8-[2-(3-methoxyphenyl)piperidin-1-yl]-7-[(trans-4-methylcyclohexyl)methyl]-7H-purine-2-carboxylic acid] | 2.26 |  |
| CCOCC1CCCN1c1nc2nc(-c3noc(=O)[nH]3)nc(N[C@H](C)C3CCC3)c2n1C[C@H]1CC[C@H](C)CC1 (stereo partly drawn) [Example 11.32, 3-(6-{[(1R)-1-cyclobutylethyl]amino}-8-[2-(ethoxymethyl)pyrrolidin-1-yl]-7-[(trans-4-methylcyclohexyl)methyl]-7H-purin-2-yl)-1,2,4-oxadiazol-5(2H)-one] | 8 |  |
| CCC1CCCN1c1nc2nc(-c3noc(=O)[nH]3)nc(N[C@H](C)C3CCC3)c2n1C[C@H]1CC[C@H](C)CC1 (stereo partly drawn) [Example 11.33, 3-(6-{[(1R)-1-cyclobutylethyl]amino}-8-(2-ethylpyrrolidin-1-yl)-7-[(trans-4-methylcyclohexyl)methyl]-7H-purin-2-yl)-1,2,4-oxadiazol-5(2H)-one] | 5.37 |  |
| CC1CCCN1c1nc2nc(-c3noc(=O)[nH]3)nc(N[C@H](C)C3CCC3)c2n1C[C@H]1CC[C@H](C)CC1 (stereo partly drawn) [Example 11.34, 3-[6-{[(1R)-1-cyclobutylethyl]amino}-7-[(trans-4-methylcyclohexyl)methyl]-8-(2-methylpyrrolidin-1-yl)-7H-purin-2-yl]-1,2,4-oxadiazol-5(2H)-one] | 25.4 |  |
| CCCC1CCCN1c1nc2nc(-c3noc(=O)[nH]3)nc(N[C@H](C)C3CCC3)c2n1C[C@H]1CC[C@H](C)CC1 (stereo partly drawn) [Example 11.35, 3-[6-{[(1R)-1-cyclobutylethyl]amino}-7-[(trans-4-methylcyclohexyl)methyl]-8-(2-propylpyrrolidin-1-yl)-7H-purin-2-yl]-1,2,4-oxadiazol-5(2H)-one] | 4.4 |  |
| C[C@@H](Nc1nc(-c2noc(=O)[nH]2)nc2nc(N3CCCC3C(C)(C)C)n(C[C@H]3CC[C@H](C)CC3)c12)C1CCC1 (stereo partly drawn) [Example 11.36, 3-{8-(2-tert-butylpyrrolidin-1-yl)-6-{[(1R)-1-cyclobutylethyl]amino}-7-[(trans-4-methylcyclohexyl)methyl]-7H-purin-2-yl}-1,2,4-oxadiazol-5(2H)-one] | 3.93 |  |
| C[C@@H](Nc1nc(-c2noc(=O)[nH]2)nc2nc(N3CCCC3CC(C)(C)C)n(C[C@H]3CC[C@H](C)CC3)c12)C1CCC1 (stereo partly drawn) [Example 11.37, 3-(6-{[(1R)-1-cyclobutylethyl]amino}-8-[2-(2,2-dimethylpropyl)pyrrolidin-1-yl]-7-[(trans-4-methylcyclohexyl)methyl]-7H-purin-2-yl)-1,2,4-oxadiazol-5(2H)-one] | 6.98 |  |
